Assay [1] deals with Cy5-hTERT-FL (DNA, G4) GGGGAGGGGCTGGGAGGGCCCGGAGGGGGCTGGGCCGGGGACCCGGGAGGGGTCGGGACGGGGCGGGG
Description: microscale thermophoresis. The settings on record: 25 mM KCl, pH 7.2, 1.5% DMSO. In general terms: Microscale thermophoresis detects binding through changes in fluorescence in a small temperature gradient.

Assay [2] deals with PQS23 (FRET-labelled) (DNA, G4) AGGGGGCTGGGCCGGGGACCCGGGAGGGGTCGGGACGGGGCGGGG
As to the kind of experiment: fluorescence thermal shift assay. The settings on record: 100 μM compound, 0.5 μM DNA, phosphate buffer.

For assay [3], the system named is Ctrl HP (FRET-labelled) (DNA, hairpin) GCATGCTTTTGCATGC
As to the kind of experiment: fluorescence thermal shift assay. The settings on record: 100 μM compound, 0.5 μM DNA, phosphate buffer.

The test system of assay [4] is PQS12 (FRET-labelled) (DNA, G4) AGGGGAGGGGCTGGGAGGGCCCGGAGGGGGCTGGGCCGGGGACCCGGGA
Description: fluorescence thermal shift assay. The settings on record: 100 mM K+; 100 μM compound, 0.5 μM DNA, phosphate buffer.

In assay [5] the test system is TERT-FL (hTERT-FL) (DNA, G4) GGGGAGGGGCTGGGAGGGCCCGGAGGGGGCTGGGCCGGGGACCCGGGAGGGGTCGGGACGGGGCGGGG
As to the kind of experiment: CD melting, 260 nm. The settings on record: 20 mM KCl; 25 μM compound, 1.1 μM DNA.

Assay [6] has as its system GC Triplex (DNA, triplex) CCCCCCCCTTTTGGGGGGGGTTTTCCCCCCCC
As to the kind of experiment: competition dialysis. The settings on record: 185 mM K+, phosphate buffer, RT, 5 μM compound, 75 μM DNA as triplets, per triplet, per base.

Assay [7] concerns TERT-FL (hTERT-FL) (DNA, G4) GGGGAGGGGCTGGGAGGGCCCGGAGGGGGCTGGGCCGGGGACCCGGGAGGGGTCGGGACGGGGCGGGG
Description: competition dialysis. The settings on record: 185 mM K+, phosphate buffer, RT, 5 μM compound, 75 μM DNA as tetrads, per tetrad, per base.

Assay [8] relates to GC duplex (DNA, hairpin) GCGCGCGCGCTTTTGCGCGCGCGC
As to the kind of experiment: competition dialysis. The settings on record: 185 mM K+, phosphate buffer, RT, 5 μM compound, 75 μM DNA as base pairs, per base pair.

The test system of assay [9] is c-Myc G4 (DNA, G4) TGAGGGTGGGTAGGGTGGGTAA
Description: competition dialysis. The settings on record: 185 mM K+, phosphate buffer, RT, 5 μM compound, 75 μM DNA as tetrads, per tetrad, per base.

In assay [10] the test system is H-Tel G4 (DNA, G4) AGGGTTAGGGTTAGGGTTAGGG
As to the kind of experiment: competition dialysis. The settings on record: 185 mM K+, phosphate buffer, RT, 5 μM compound, 75 μM DNA as tetrads, per tetrad, per base.

In assay [11] the test system is PQS12 (DNA, G4) AGGGGAGGGGCTGGGAGGGCCCGGAGGGGGCTGGGCCGGGGACCCGGGA
Description: competition dialysis. The settings on record: 185 mM K+; phosphate buffer, RT, 5 μM compound, 75 μM DNA as tetrads.

Assay [12] concerns AT duplex (DNA, hairpin) ATATATATATCCCCATATATATAT
Description: competition dialysis. The settings on record: 185 mM K+, phosphate buffer, RT, 5 μM compound, 75 μM DNA as base pairs, per base pair.

Assay [13] has as its system PQS23 (DNA, G4) AGGGGGCTGGGCCGGGGACCCGGGAGGGGTCGGGACGGGGCGGGG
As to the kind of experiment: competition dialysis. The settings on record: 185 mM K+; phosphate buffer, RT, 5 μM compound, 75 μM DNA as tetrads.

A word on the apparent Kd: it is a dissociation constant that holds for the conditions of the assay.

In the case of `CCc1nc(N(CCC(=O)NC(C)C)CCc2ccccc2)c2ccccc2n1`, the Kd in assay [1] (BPEK buffer, 20 nM DNA) is 5 [1, 23] μM.
On to `CCCC(CCC)C1CCN(c2nc(CCN)nc3ccccc23)CC1`, for which the Kd in assay [1] (BPEK buffer, 20 nM DNA) was 17 [7, 45] μM. Moreover, the binding result in assay [2] (K+ (concentration not stated)) is “yes”; in [3] (K+ (concentration not stated)), “no”.
`Cc1cnccc1NCCNC(=O)c1cccc(CC2CCNCC2)c1`: the binding entry in assay [4] is listed as “no”; in [2] (100 mM K+) it was “yes”; in assay [3] (100 mM K+), “no”.
With `NC(N)=NCCCS(=O)(=O)Nc1ccc(Nc2c3ccccc3nc3cc([N+](=O)[O-])ccc23)cc1`, the “apparent Kd” value in assay [1] (BPEK buffer, 20 nM DNA, without calf thymus DNA, apparent) was 2 µM.
On to `CN(CCc1ccccc1)c1nc(-c2ccc(F)cc2)nc2ccccc12`, for which, in assay [1] (BPEK buffer, up to 200 μM, no reliable fit), the binding entry was “no”.
In the case of `Cc1nc(NCCc2ccccc2)c2ccccc2n1`, in assay [1] (BPEK buffer, 20 nM DNA), the Kd was 13 [7, 24] μM.
As for `CN(CCc1ccccc1)c1nc(CCN)nc2ccccc12`, the binding result in assay [5], in [11] and in assay [13] was “yes” each time. Also, the “apparent Kd” value is above 140 µM in assay [6]; 24 µM in [7]; above 140 µM in assay [8]; above 140 µM in assay [9]; above 140 µM in [10]; above 140 µM in assay [12]. In assay [1] (BPEK buffer, 20 nM DNA), the Kd is 8 [4, 19] μM.
For the compound `COCCN1CC2CCC1CN(c1nc(N(C)C)nc(C)c1C)C2` (stereo not drawn), the binding entry in assay [5] is given as “yes”. For the same compound, the “apparent Kd” value in [6] was above 140 µM; in assay [7], 22 µM; in assay [8], above 140 µM; in [9] it was above 140 µM; in assay [10], above 140 µM; in [12], above 140 µM.
The compound `CCOc1ccccc1CCNc1nc(CCN)nc2ccccc12` registered a Kd in assay [1] (BPEK buffer (8 mM sodium phosphate, 1 mM EDTA), 20 nM DNA) of 3 µM. Besides, the binding result in [2] (K+ (concentration not stated)) is given as “yes”; in [3] (K+ (concentration not stated)), “no”.
